Experimental data published in patent publication US20250243488A1, “METHODS OF MODULATING PROGRANULIN EXPRESSION USING ANTISENSE OLIGONUCLEOTIDES TARGETING REGULATORY RNAS” (Camp4 Therapeutics Corporation, priority 2022, published 2025).
Oligonucleotides are written 5' to 3', each unit as a sugar letter and its base; * is a phosphorothioate linkage, no mark a phosphodiester; rarer units and linkages stand in square brackets, end groups in braces. Plain capitals give the bases only. e = 2'-O-(2-methoxyethyl) (MOE); l = locked nucleic acid (LNA); [5mC] = 5-methylcytosine; d = 2'-deoxy (DNA)

System: GRN mRNA
Test: GRN mRNA qPCR in SK-N-AS cells transfected with ASOs
Assay type: cell-based, human
Conditions: for hGRN mRNA FC / 120 nM FC (GRN mRNA): 120 nM
In short: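 Fold change in GRN mRNA, by qPCR with GAPDH/PPIA housekeeping normalization, referenced to steric non-targeting control ASO(s) such as CO-1589. ASOs were transfected into SK-N-AS neuroblastoma cells in dose titrations (20 to 160 nM initially). Cells were harvested 48 hours post-transfection.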

[1] = Table 9, SK-N-AS, 48 hours post-transfection, normalized to CO-1589
[2] = Table 12, SK-N-AS, normalized to CO-1589
[3] = Table 13, SK-N-AS, normalized to CO-1589
[4] = Table 10, SK-N-AS, 48 hours, normalized to CO-1589
[5] = Table 11, SK-N-AS, 48 hours, normalized to CO-1589
[6] = Table 3, SK-N-AS, normalized to CO-3772 and CO-1589 (sNTC1)

## CO-4632: ASO designed to target intergenic enhancers (eRNA) (antisense eT*eG*e[5mC]*eT*eA*eT*eG*e[5mC]*eA*eT*eT*eG*eA*eG*eT*eT*eT*eT*e[5mC]*e[5mC])
[1]
  hGRN mRNA FC: 1.1 FC

## CO-6380: ASO based on parent ASO CO-3462 (antisense eA*eA*eA*eA*e[5mC]*eA*eA*eA*e[5mC]*eA*e[5mC]*eA*e[5mC]*eA*eA*eG*eT*e[5mC]*e[5mC]*eG)
[2]
  30 nM FC (GRN mRNA): 0.8 FC
  60 nM FC (GRN mRNA): 0.8 FC
  120 nM FC (GRN mRNA): 0.8 FC

## CO-6427: ASO based on parent ASOs CO-4363 and CO-4364 (eG*eG*eG*eA*e[5mC]*eT*eT*eG*eG*eG*eA*eG*eT*eG*eG*eT*eG*eA*e[5mC]*eT*eG*eA*eA*e[5mC]*e[5mC])
[3]
  30 nM FC (GRN mRNA): 1.2 FC
  60 nM FC (GRN mRNA): 1.1 FC
  120 nM FC (GRN mRNA): 1.2 FC

## CO-4649: ASO designed to target intergenic enhancers (eRNA) (antisense eT*eG*eG*eG*eA*e[5mC]*eA*eG*e[5mC]*eG*eT*eG*eG*eA*eT*eT*eA*eA*eT*eA)
SK-N-AS, 3.75 nM to 120 nM, 48 hours
  hit identification (GRN mRNA dose escalation): initial hits
[1]
  hGRN mRNA FC: 1.2 FC
Table 10, SK-N-AS, 3.75 nM, 48 hours, normalized to CO-1589
  3.75 nM FC (GRN mRNA): 1.2 FC
Table 10, SK-N-AS, 7.5 nM, 48 hours, normalized to CO-1589
  7.5 nM FC (GRN mRNA): 1.2 FC
Table 10, SK-N-AS, 15 nM, 48 hours, normalized to CO-1589
  15 nM FC (GRN mRNA): 1.3 FC
[4]
  30 nM FC (GRN mRNA): 1.2 FC
  60 nM FC (GRN mRNA): 1.2 FC
  120 nM FC (GRN mRNA): 1.3 FC

## CO-4607: ASO designed to target intergenic enhancers (eRNA) (antisense eA*eA*eG*eA*eA*eA*eT*eA*eG*eA*eT*eT*eA*e[5mC]*e[5mC]*e[5mC]*e[5mC]*eG*eT*eT)
[1]
  hGRN mRNA FC: 1.1 FC

## CO-4600: ASO designed to target intergenic enhancers (eRNA) (antisense eT*eT*eA*eG*e[5mC]*eA*e[5mC]*eG*eT*eG*eG*eA*e[5mC]*eT*e[5mC]*e[5mC]*eG*eA*eG*eG)
[1]
  hGRN mRNA FC: 1.0 FC

## CO-4612: ASO designed to target intergenic enhancers (eRNA) (antisense eA*eT*eG*eG*e[5mC]*eT*eA*eA*eA*eA*e[5mC]*eT*eA*e[5mC]*e[5mC]*eT*eT*e[5mC]*e[5mC]*eA)
[1]
  hGRN mRNA FC: 1.0 FC

## CO-6385: ASO based on parent ASO CO-3462 (antisense e[5mC]*eG*eG*eT*eA*eG*eG*eA*eG*eA*eA*eT*e[5mC]*eG*e[5mC]*eT*eT*eT*eG*eG)
[2]
  30 nM FC (GRN mRNA): 1.1 FC
  60 nM FC (GRN mRNA): 1.2 FC
  120 nM FC (GRN mRNA): 1.3 FC

## CO-6434: ASO designed to target an intragenic enhancer RNA (eRNA) (eT*e[5mC]*e[5mC]*eG*eA*eT*e[5mC]*eA*e[5mC]*e[5mC]*eT*eG*e[5mC]*eA*e[5mC]*eT*eG*e[5mC]*eT*eG)
[5]
  hGRN mRNA FC: 0.9 FC

## CO-6444: ASO designed to target an intragenic enhancer RNA (eRNA) (eT*eG*e[5mC]*e[5mC]*e[5mC]*eA*eA*eT*eG*e[5mC]*e[5mC]*e[5mC]*eA*eA*e[5mC]*eG*eT*eG*eA*eG)
[5]
  hGRN mRNA FC: 1.0 FC

## CO-6415: ASO based on parent ASOs CO-4363 and CO-4364 (antisense eG*eG*eA*l[5mC]*eT*eT*lG*eG*eG*lA*eG*eT*lG*eG*eT*lG*eA*e[5mC]*lT*eG*eA)
[3]
  30 nM FC (GRN mRNA): 1.3 FC
  60 nM FC (GRN mRNA): 1.6 FC
  120 nM FC (GRN mRNA): 1.6 FC

## CO-4601: ASO designed to target intergenic enhancers (eRNA) (antisense eG*eT*eA*eG*eG*e[5mC]*e[5mC]*eT*e[5mC]*eG*eA*e[5mC]*eT*eT*eT*eG*eA*e[5mC]*eG*eT)
[1]
  hGRN mRNA FC: 1.0 FC

## CO-6417: ASO based on parent ASOs CO-4363 and CO-4364 (eG*eG*eA*e[5mC]*lT*eT*eG*eG*lG*eA*eG*eT*lG*eG*eT*eG*lA*e[5mC]*eT*eG*eA)
[3]
  30 nM FC (GRN mRNA): 1.4 FC
  60 nM FC (GRN mRNA): 2.3 FC
  120 nM FC (GRN mRNA): 2.8 FC

## CO-6451: ASO designed to target an intragenic enhancer RNA (eRNA) (eA*e[5mC]*eG*eT*eT*eT*eG*e[5mC]*eT*e[5mC]*e[5mC]*eT*e[5mC]*eT*eT*e[5mC]*e[5mC]*eA*eG*eT)
[5]
  hGRN mRNA FC: 1.0 FC

## CO-6401: ASO based on parent ASO CO-3462 (antisense eG*eT*eA*eG*eG*dA*dG*dA*eA*dT*d[5mC]*dG*d[5mC]*eT*dT*dT*dG*eG*eG*eA*eG*e[5mC])
[2]
  30 nM FC (GRN mRNA): 1.2 FC
  60 nM FC (GRN mRNA): 1.5 FC
  120 nM FC (GRN mRNA): 1.7 FC

## CO-4640: ASO designed to target intergenic enhancers (eRNA) (antisense eG*e[5mC]*e[5mC]*e[5mC]*e[5mC]*e[5mC]*eT*eA*eG*eA*eG*eG*eA*e[5mC]*eA*eT*eT*eT*eT*eT)
[1]
  hGRN mRNA FC: 1.0 FC

## CO-6394: ASO based on parent ASO CO-3462 (antisense eT*eA*lG*eG*eA*lG*eA*eA*lT*e[5mC]*eG*l[5mC]*eT*eT*lT*eG*eG*lG*eA*eG)
[2]
  30 nM FC (GRN mRNA): 1.1 FC
  60 nM FC (GRN mRNA): 0.9 FC
  120 nM FC (GRN mRNA): 1.3 FC

## CO-4610: ASO designed to target intergenic enhancers (eRNA) (antisense eG*eG*eA*e[5mC]*eA*eT*eG*e[5mC]*eT*eG*eG*eA*eA*eA*eG*eT*e[5mC]*eT*eT*eA)
[1]
  hGRN mRNA FC: 1.2 FC

## CO-6418: ASO based on parent ASOs CO-4363 and CO-4364 (eG*eG*eA*e[5mC]*eT*lT*eG*eG*eG*eA*lG*eT*eG*eG*eT*lG*eA*e[5mC]*eT*eG*eA)
[3]
  30 nM FC (GRN mRNA): 1.6 FC
  60 nM FC (GRN mRNA): 1.6 FC
  120 nM FC (GRN mRNA): 1.9 FC

## CO-6441: ASO designed to target an intragenic enhancer RNA (eRNA) (eG*eG*e[5mC]*eT*eG*eA*eT*eG*e[5mC]*eA*eG*eG*eG*eT*eT*e[5mC]*eA*eT*eG*e[5mC])
[5]
  hGRN mRNA FC: 1.4 FC

## CO-8877: hGRN regRNA-targeting ASO with additional chemical modifications (antisense eT*eA*lG*e[5mC]*eA*dA*dA*d[5mC]*dT*d[5mC]*d[5mC]*d[5mC]*d[5mC]*d[5mC]*dA*eG*eG*l[5mC]*eG*e[5mC])
3.75 to 90 nM, 48 hours post-transfection, normalized to sNTC (FIGS. 26A, 26B)
  GRN mRNA expression in SK-N-AS cells: dose-dependent increase

## CO-6412: ASO based on parent ASOs CO-4363 and CO-4364 (antisense eG*eG*eA*e[5mC]*eT*dT*dG*dG*dG*dA*dG*dT*dG*dG*dT*dG*eA*e[5mC]*eT*eG*eA)
[3]
  30 nM FC (GRN mRNA): 1.0 FC
  60 nM FC (GRN mRNA): 0.8 FC
  120 nM FC (GRN mRNA): 0.9 FC

## CO-6449: ASO designed to target an intragenic enhancer RNA (eRNA) (eG*eT*e[5mC]*e[5mC]*eA*eG*e[5mC]*eT*e[5mC]*eG*eG*eT*e[5mC]*eA*eT*eG*eT*eG*eT*e[5mC])
[5]
  hGRN mRNA FC: 1.1 FC

## CO-4644: ASO designed to target intergenic enhancers (eRNA) (antisense eG*eT*eT*eA*eA*eG*eT*eA*e[5mC]*eG*eT*eG*eA*e[5mC]*e[5mC]*e[5mC]*eT*eA*eT*e[5mC])
[1]
  hGRN mRNA FC: 1.1 FC

## CO-4353: LNA/PS modified ASO based on CO-3423 (antisense eG*eG*eA*e[5mC]*eT*lT*dG*dG*lG*dA*dG*lT*dG*dG*lT*eG*eA*e[5mC]*eT*eG)
[6]
  30 nM FC (GRN mRNA): 1.4 FC
  60 nM FC (GRN mRNA): 1.4 FC
  120 nM FC (GRN mRNA): 1.8 FC

## CO-6389: ASO based on parent ASO CO-3462 (antisense eT*eA*eG*lG*eA*dG*dA*lA*dT*d[5mC]*dG*l[5mC]*dT*dT*dT*lG*eG*eG*eA*eG)
[2]
  30 nM FC (GRN mRNA): 1.0 FC
  60 nM FC (GRN mRNA): 1.0 FC
  120 nM FC (GRN mRNA): 2.1 FC

## CO-4620: ASO designed to target intergenic enhancers (eRNA) (antisense eG*eT*e[5mC]*e[5mC]*eA*eG*e[5mC]*eA*e[5mC]*eG*e[5mC]*eT*e[5mC]*eT*e[5mC]*eA*eG*e[5mC]*eA*e[5mC])
[1]
  hGRN mRNA FC: 1.0 FC
